# Assay results taken from ChEMBL document CHEMBL4265897, “Discovery of benzothiazole amides as potent antimycobacterial agents” (Bioorg Med Chem Lett, 2018).
# Tests used:
# [1] = system: Mycobacteroides abscessus; experiment: Antimycobacterial activity against Mycobacterium abscessus ATCC 19977 by CLSI method; assay type: functional
# Mycobacterium avium = experiment: Antimycobacterial activity against Mycobacterium avium 101 by CLSI method; assay type: functional
# [2] = system: Mycobacterium intracellulare; experiment: Antimycobacterial activity against Mycobacterium intracellulare 1956 by CLSI method; assay type: functional
# [3] = system: Mycobacteroides abscessus; experiment: Antimycobacterial activity against Mycobacterium abscessus 1 by CLSI method; assay type: functional
# [4] = system: Mycobacteroides abscessus; experiment: Antimycobacterial activity against Mycobacterium abscessus 21 by CLSI method; assay type: functional
# [5] = system: Mycobacteroides abscessus; experiment: Antimycobacterial activity against Mycobacterium abscessus 79 by CLSI method; assay type: functional
# [6] = system: Mycobacteroides abscessus; experiment: Antimycobacterial activity against Mycobacterium abscessus 103 by CLSI method; assay type: functional
# [7] = system: Mycobacteroides abscessus; experiment: Antimycobacterial activity against Mycobacterium massiliense 119 by CLSI method; assay type: functional, Mycobacterium abscessus subsp. massiliense
# Mycobacteroides chelonae = experiment: Antimycobacterial activity against Mycobacterium chelonae 93 by CLSI method; assay type: functional
# [8] = system: Mycolicibacterium fortuitum; experiment: Antimycobacterial activity against Mycobacterium fortuitum 41 by CLSI method; assay type: functional
# [9] = system: Mycolicibacterium peregrinum; experiment: Antimycobacterial activity against Mycobacterium peregrinum ATCC 700686 by CLSI method; assay type: functional
# [10] = system: Mycobacterium tuberculosis; experiment: Antimycobacterial activity against Mycobacterium tuberculosis H37Rv MC2 6206 by CLSI method; assay type: functional
# Cytochrome P450 2B6 = target: T1, Cytochrome P450 2B6 (Homo sapiens, UniProt P20813); experiment: Inhibition of CYP2B6 (unknown origin); assay type: ADME
# T1 sequence (P20813 whole entry): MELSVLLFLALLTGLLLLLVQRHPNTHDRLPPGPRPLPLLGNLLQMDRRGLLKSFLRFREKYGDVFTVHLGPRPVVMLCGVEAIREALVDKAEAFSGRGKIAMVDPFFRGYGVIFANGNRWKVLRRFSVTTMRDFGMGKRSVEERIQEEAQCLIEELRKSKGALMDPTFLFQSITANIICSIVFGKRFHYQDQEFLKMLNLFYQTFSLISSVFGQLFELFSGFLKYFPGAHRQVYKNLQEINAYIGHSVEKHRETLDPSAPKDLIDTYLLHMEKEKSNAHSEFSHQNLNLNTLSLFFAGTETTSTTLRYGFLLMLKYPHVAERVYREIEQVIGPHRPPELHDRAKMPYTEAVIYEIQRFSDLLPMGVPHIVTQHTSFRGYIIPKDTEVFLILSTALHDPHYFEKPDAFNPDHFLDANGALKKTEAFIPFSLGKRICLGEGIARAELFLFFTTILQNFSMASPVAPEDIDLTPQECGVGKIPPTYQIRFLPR
# Cytochrome P450 2C8 = target: T2, Cytochrome P450 2C8 (Homo sapiens, UniProt P10632); experiment: Inhibition of CYP2C8 (unknown origin); assay type: ADME
# T2 sequence (P10632 whole entry): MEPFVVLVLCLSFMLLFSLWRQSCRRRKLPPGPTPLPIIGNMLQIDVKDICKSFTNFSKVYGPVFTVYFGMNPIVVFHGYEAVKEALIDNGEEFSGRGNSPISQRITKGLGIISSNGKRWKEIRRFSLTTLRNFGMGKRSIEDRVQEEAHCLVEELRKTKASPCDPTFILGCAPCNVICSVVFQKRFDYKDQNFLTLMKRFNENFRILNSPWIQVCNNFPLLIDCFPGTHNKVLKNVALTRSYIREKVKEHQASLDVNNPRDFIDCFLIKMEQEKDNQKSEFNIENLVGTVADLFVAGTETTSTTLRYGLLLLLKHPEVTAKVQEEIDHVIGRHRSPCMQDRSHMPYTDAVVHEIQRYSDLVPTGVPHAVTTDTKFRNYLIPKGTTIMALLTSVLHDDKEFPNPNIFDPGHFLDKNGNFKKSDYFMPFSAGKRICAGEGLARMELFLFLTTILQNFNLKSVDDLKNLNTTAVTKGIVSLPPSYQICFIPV
# Cytochrome P450 2C9 = Cytochrome P450 2C9 (Homo sapiens, UniProt P11712); experiment: Inhibition of CYP2C9 (unknown origin); assay type: ADME
# Cytochrome P450 2C19 = Cytochrome P450 2C19 (Homo sapiens, UniProt P33261); experiment: Inhibition of CYP2C19 (unknown origin); assay type: ADME
# Cytochrome P450 2D6 = Cytochrome P450 2D6 (Homo sapiens, UniProt P10635); experiment: Inhibition of CYP2D6 (unknown origin); assay type: ADME
# Cytochrome P450 3A4 [11] = target: T3, Cytochrome P450 3A4 (Homo sapiens, UniProt P08684); experiment: Inhibition of CYP3A4 (unknown origin) using midazolam as substrate; assay type: ADME
# Cytochrome P450 3A4 [12] = target: T3, Cytochrome P450 3A4; experiment: Inhibition of CYP3A4 (unknown origin) using testosterone as substrate; assay type: ADME
# [13] = Protein binding in human serum; assay type: ADME, cell-free; conditions: read-out: PB
# [14] = Oral bioavailability in mouse at 100 mg/kg; assay type: ADME, organism-based; conditions: in vivo
# [15] = Clearance in mouse plasma at 10 mg/kg, iv; assay type: ADME, organism-based
# RBCs = experiment: Hemolytic activity in RBC (unknown origin) at 128 ug/ml; assay type: ADME, cell-based; conditions: erythrocyte
# [16] = Solubility of the compound; assay type: physicochemical
# HepG2 = experiment: Cytotoxicity against human HepG2 cells; assay type: cell-based
# Mus musculus = experiment: Toxicity in mouse assessed as abnormal behavior at 100 to 300 mg/kg, po administered as single dose; assay type: organism-based; conditions: in vivo
# T3 sequence (P08684 whole entry): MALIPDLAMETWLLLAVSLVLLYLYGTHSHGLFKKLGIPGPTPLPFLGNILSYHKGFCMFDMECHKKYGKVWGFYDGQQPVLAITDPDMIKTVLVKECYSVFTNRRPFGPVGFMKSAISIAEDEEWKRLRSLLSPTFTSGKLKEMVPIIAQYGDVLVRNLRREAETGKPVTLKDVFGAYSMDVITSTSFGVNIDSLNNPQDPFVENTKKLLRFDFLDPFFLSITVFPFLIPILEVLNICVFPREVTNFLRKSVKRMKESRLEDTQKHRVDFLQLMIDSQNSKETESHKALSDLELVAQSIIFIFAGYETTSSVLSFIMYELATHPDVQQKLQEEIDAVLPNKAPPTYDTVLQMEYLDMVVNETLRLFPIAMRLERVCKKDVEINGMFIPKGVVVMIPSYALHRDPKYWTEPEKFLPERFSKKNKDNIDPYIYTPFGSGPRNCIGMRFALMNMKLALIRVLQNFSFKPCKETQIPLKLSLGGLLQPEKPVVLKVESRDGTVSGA
# Cytochrome P450 2D6, sequence (P10635 whole entry): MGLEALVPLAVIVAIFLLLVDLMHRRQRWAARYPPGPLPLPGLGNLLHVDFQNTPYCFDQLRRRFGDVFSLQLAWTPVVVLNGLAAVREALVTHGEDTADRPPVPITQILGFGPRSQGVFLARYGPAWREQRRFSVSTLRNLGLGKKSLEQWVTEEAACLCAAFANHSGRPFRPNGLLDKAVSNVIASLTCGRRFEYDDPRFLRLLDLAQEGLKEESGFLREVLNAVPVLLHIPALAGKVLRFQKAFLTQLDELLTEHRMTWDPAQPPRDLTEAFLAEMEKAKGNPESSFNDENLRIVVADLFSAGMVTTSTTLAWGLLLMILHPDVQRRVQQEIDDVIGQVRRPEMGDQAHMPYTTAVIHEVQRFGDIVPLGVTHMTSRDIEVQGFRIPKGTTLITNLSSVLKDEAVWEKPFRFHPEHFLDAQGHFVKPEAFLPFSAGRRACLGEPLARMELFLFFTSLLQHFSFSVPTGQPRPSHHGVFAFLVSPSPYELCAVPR
# Cytochrome P450 2C19, sequence (P33261 whole entry): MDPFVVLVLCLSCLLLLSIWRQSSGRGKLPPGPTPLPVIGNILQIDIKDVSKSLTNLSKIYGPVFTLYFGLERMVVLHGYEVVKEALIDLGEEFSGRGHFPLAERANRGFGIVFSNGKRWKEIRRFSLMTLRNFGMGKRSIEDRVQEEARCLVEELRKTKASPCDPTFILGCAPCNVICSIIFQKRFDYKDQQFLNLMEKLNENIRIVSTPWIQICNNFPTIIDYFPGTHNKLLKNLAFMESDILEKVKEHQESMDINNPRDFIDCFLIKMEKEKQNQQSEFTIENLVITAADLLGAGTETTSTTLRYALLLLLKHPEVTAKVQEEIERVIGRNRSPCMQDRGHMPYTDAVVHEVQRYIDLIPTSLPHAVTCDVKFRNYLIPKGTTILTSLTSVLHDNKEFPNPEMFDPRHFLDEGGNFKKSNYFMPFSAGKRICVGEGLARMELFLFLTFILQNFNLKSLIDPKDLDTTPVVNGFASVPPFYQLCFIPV
# Cytochrome P450 2C9, sequence (P11712 whole entry): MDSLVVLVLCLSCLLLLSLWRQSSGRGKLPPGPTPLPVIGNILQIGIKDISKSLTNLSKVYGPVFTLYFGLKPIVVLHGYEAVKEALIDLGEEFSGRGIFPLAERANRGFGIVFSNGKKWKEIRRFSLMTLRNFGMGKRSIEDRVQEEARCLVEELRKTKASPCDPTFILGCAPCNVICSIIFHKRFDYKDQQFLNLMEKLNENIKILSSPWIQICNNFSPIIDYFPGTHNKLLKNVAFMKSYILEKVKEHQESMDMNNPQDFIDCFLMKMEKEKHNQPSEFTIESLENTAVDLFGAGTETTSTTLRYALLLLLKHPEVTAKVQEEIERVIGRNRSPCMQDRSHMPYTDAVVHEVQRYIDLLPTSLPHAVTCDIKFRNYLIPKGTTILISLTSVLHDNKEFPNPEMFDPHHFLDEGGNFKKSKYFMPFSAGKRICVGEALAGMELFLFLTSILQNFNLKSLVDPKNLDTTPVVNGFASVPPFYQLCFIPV
SMILES,MIC [1] [mg/L],MIC (Mycobacterium avium) [mg/L],MIC [2] [mg/L],MIC [3] [mg/L],MIC [4] [mg/L],MIC [5] [mg/L],MIC [6] [mg/L],MIC [7] [mg/L],MIC (Mycobacteroides chelonae) [mg/L],MIC [8] [mg/L],MIC [9] [mg/L],MIC [10] [mg/L],other results
CC1CC(C(=O)Nc2nc3cc(Br)ccc3s2)CC(C)(C)C1 (configuration not stated),32,> 64,> 64,32,16,16,16,64,16,16,4,–,–
CC1CC(C(=O)Nc2nc3ccc(Br)cc3s2)CC(C)(C)C1 (configuration not stated),–,> 64,> 64,1,0.5,0.5,0.25,0.5,0.5,0.5,0.12,2,IC50 (Cytochrome P450 2B6): 12.8 µM; IC50 (Cytochrome P450 2C8): > 20 µM; IC50 (Cytochrome P450 2C9): > 20 µM; IC50 (Cytochrome P450 2C19): 12.7 µM; IC50 (Cytochrome P450 2D6): 1.6 µM; IC50 (Cytochrome P450 3A4 [11]): > 20 µM; IC50 (Cytochrome P450 3A4 [12]): > 20 µM; fraction unbound [13]: < 0.01; bioavailability [14]: 75%; clearance [15]: 1.5 L/h/kg; Activity (RBCs): Non-Toxic; solubility [16]: Insoluble
CC1CC(C(=O)Nc2nc3ccc(OC(F)(F)F)cc3s2)CC(C)(C)C1 (configuration not stated),–,> 64,> 64,0.5,0.25,0.25,0.25,0.25,0.12,1,0.25,–,IC50 (Cytochrome P450 2B6): > 20 µM; IC50 (Cytochrome P450 2C8): > 20 µM; IC50 (Cytochrome P450 2C9): > 20 µM; IC50 (Cytochrome P450 2C19): > 20 µM; IC50 (Cytochrome P450 2D6): > 20 µM; IC50 (Cytochrome P450 3A4 [11]): > 20 µM; IC50 (Cytochrome P450 3A4 [12]): > 20 µM; fraction unbound [13]: < 0.01; IC50 (HepG2): > 100 µM; Activity (RBCs): Non-Toxic; solubility [16]: Insoluble
CC1CC(C(=O)Nc2nc3c(Cl)cccc3s2)CC(C)(C)C1 (configuration not stated),16,> 64,16,2,2,4,–,1,2,4,1,–,–
CC12CC3CC(C)(C1)CC(C(=O)Nc1nc4ccccc4s1)(C3)C2,1,2,2,–,–,–,–,–,–,–,–,4,–
CC1CC(C(=O)Nc2nc3ccc(N(C)C)cc3s2)CC(C)(C)C1 (configuration not stated),32,> 64,> 64,> 64,16,8,64,4,2,8,2,–,–
COc1ccc2nc(NC(=O)C3CC(C)CC(C)(C)C3)sc2c1 (configuration not stated),1,16,8,2,1,1,–,0.5,0.25,2,1,8,–
CC1CC(C(=O)Nc2nc3c(F)cc(F)cc3s2)CC(C)(C)C1 (configuration not stated),–,64,4,1,0.5,0.5,0.5,0.5,0.25,0.25,0.2,–,Activity (Mus musculus): Non-Toxic
